Values quoted from earlier work in patent US20070232597A1, “Compounds, Compositions, and Methods” (priority 2003, published 2007).

System: A549 cells
Conditions: data provided by National Cancer Institute, Developmental Therapeutic Program

First: COc1cccc2c1C(=O)c1c(O)c3c(c(O)c1C2=O)C[C@@](O)(C(=O)CO)C[C@@H]3O[C@H]1C[C@H](N)[C@H](O)[C@H](C)O1 [doxorubicin]
Second: CC(=O)O[C@H]1C(=O)[C@@]2(C)[C@H]([C@H](OC(=O)c3ccccc3)[C@]3(O)C[C@H](OC(=O)[C@H](O)[C@@H](NC(=O)c4ccccc4)c4ccccc4)C(C)=C1C3(C)C)[C@]1(OC(C)=O)CO[C@@H]1C[C@@H]2O [paclitaxel]
The GI50 of the first is 16-fold higher: 63 nM for the first, 4 nM for the second.

Going from `O=c1[nH]cc(F)c(=O)[nH]1` [5-fluorouracil] to `NC(=O)NO` [hydroxyurea], the GI50 rises from 1000 nM to 500000 nM (500-fold).
